Several values for one entry are separate records, joined by “and”; a condition that tells them apart may be missing. Identical values can stand only once.
Conditions: transient hot wire

O=C(C(F)(F)C(F)(F)F)C(F)(C(F)(F)F)C(F)(F)F [dodecafluoro-2-methylpentan-3-one]
Conditions	thermal conductivity
331.38 K, 45565 kPa, Liquid	0.06924 W/m/K
331.38 K, 45571 kPa, Liquid	0.06916 W/m/K
331.39 K, 36560 kPa, Liquid	0.06692 W/m/K
331.4 K, 36561 kPa, Liquid	0.0672 W/m/K
331.51 K, 102 kPa, Gas	0.01402 W/m/K
331.54 K, 107 kPa, Gas	0.01383 W/m/K
331.55 K, 3950 kPa, Liquid	0.05388 W/m/K
331.55 K, 3951 kPa, Liquid	0.05379 W/m/K
331.56 K, 72 kPa, Gas	0.01361 W/m/K
331.58 K, 74 kPa, Gas	0.01363 W/m/K
331.64 K, 28068 kPa, Liquid	0.06457 W/m/K
331.64 K, 28075 kPa, Liquid	0.06383 W/m/K
331.67 K, 20446 kPa, Liquid	0.06141 W/m/K
331.67 K, 20447 kPa, Liquid	0.06118 W/m/K
331.7 K, 14109 kPa, Liquid	0.0585 W/m/K
331.71 K, 14116 kPa, Liquid	0.05838 W/m/K
331.75 K, 8577 kPa, Liquid	0.05613 W/m/K
331.75 K, 69214 kPa, Liquid	0.07577 W/m/K
331.76 K, 8578 kPa, Liquid	0.0562 W/m/K
331.76 K, 69231 kPa, Liquid	0.07536 W/m/K
331.77 K, 57729 kPa, Liquid	0.0724 W/m/K
331.77 K, 57733 kPa, Liquid	0.07259 W/m/K
331.79 K, 239 kPa, Liquid	0.05138 W/m/K
331.79 K, 45573 kPa, Liquid	0.06907 W/m/K
331.8 K, 242 kPa, Liquid	0.05139 W/m/K
331.8 K, 45574 kPa, Liquid	0.06925 W/m/K
331.81 K, 102 kPa, Gas	0.01364 W/m/K
331.83 K, 106 kPa, Gas	0.01386 W/m/K
331.83 K, 36555 kPa, Liquid	0.06649 W/m/K
331.83 K, 36558 kPa, Liquid	0.06686 W/m/K
331.84 K, 107 kPa, Liquid	0.05166 W/m/K and 0.05159 W/m/K
331.86 K, 71 kPa, Gas	0.01366 W/m/K
331.89 K, 74 kPa, Gas	0.01368 W/m/K
332.07 K, 3947 kPa, Liquid	0.05394 W/m/K
332.08 K, 3946 kPa, Liquid	0.05395 W/m/K
332.12 K, 28065 kPa, Liquid	0.06395 W/m/K
332.12 K, 28069 kPa, Liquid	0.06418 W/m/K
332.14 K, 107 kPa, Gas	0.01388 W/m/K
332.18 K, 20442 kPa, Liquid	0.0612 W/m/K and 0.06122 W/m/K
332.19 K, 71 kPa, Gas	0.0138 W/m/K
332.19 K, 69215 kPa, Liquid	0.07588 W/m/K
332.19 K, 69218 kPa, Liquid	0.07551 W/m/K
332.22 K, 57721 kPa, Liquid	0.07263 W/m/K
332.22 K, 57724 kPa, Liquid	0.07259 W/m/K
332.23 K, 74 kPa, Gas	0.01373 W/m/K
332.23 K, 14110 kPa, Liquid	0.05828 W/m/K
332.23 K, 14111 kPa, Liquid	0.05807 W/m/K
332.27 K, 45566 kPa, Liquid	0.06911 W/m/K
332.28 K, 45563 kPa, Liquid	0.06904 W/m/K
332.3 K, 8573 kPa, Liquid	0.0558 W/m/K
332.3 K, 8574 kPa, Liquid	0.05582 W/m/K
332.32 K, 36553 kPa, Liquid	0.06631 W/m/K
332.33 K, 36552 kPa, Liquid	0.06642 W/m/K
332.35 K, 238 kPa, Liquid	0.05149 W/m/K
332.35 K, 239 kPa, Liquid	0.05131 W/m/K
332.38 K, 108 kPa, Liquid	0.05165 W/m/K
332.39 K, 107 kPa, Liquid	0.05161 W/m/K
332.47 K, 102 kPa, Gas	0.01373 W/m/K
332.56 K, 71 kPa, Gas	0.01389 W/m/K
332.59 K, 73 kPa, Gas	0.01379 W/m/K
332.65 K, 28066 kPa, Liquid	0.0639 W/m/K
332.66 K, 28069 kPa, Liquid	0.06388 W/m/K
332.68 K, 3944 kPa, Liquid	0.05341 W/m/K
332.68 K, 3949 kPa, Liquid	0.05349 W/m/K
332.68 K, 69200 kPa, Liquid	0.07562 W/m/K
332.69 K, 69200 kPa, Liquid	0.07558 W/m/K
332.73 K, 20437 kPa, Liquid	0.06118 W/m/K
332.73 K, 57710 kPa, Liquid	0.07255 W/m/K
332.73 K, 57718 kPa, Liquid	0.07251 W/m/K
332.74 K, 20439 kPa, Liquid	0.06126 W/m/K
332.8 K, 45557 kPa, Liquid	0.06917 W/m/K
332.81 K, 45558 kPa, Liquid	0.06905 W/m/K
332.82 K, 14107 kPa, Liquid	0.05846 W/m/K
332.83 K, 102 kPa, Gas	0.01371 W/m/K
332.83 K, 14108 kPa, Liquid	0.05829 W/m/K
332.85 K, 107 kPa, Gas	0.01391 W/m/K
332.87 K, 36553 kPa, Liquid	0.06645 W/m/K
332.87 K, 36556 kPa, Liquid	0.06639 W/m/K
332.91 K, 8572 kPa, Liquid	0.05573 W/m/K
332.91 K, 8573 kPa, Liquid	0.05574 W/m/K
332.94 K, 70 kPa, Gas	0.01377 W/m/K
332.97 K, 73 kPa, Gas	0.01383 W/m/K
332.97 K, 230 kPa, Liquid	0.05124 W/m/K
332.98 K, 237 kPa, Liquid	0.05109 W/m/K

— the NIST ThermoML archive (doi:10.1021/acs.jced.8b00132)
